Measurements taken from PMC11609934, “Exploration and characterization of the antimalarial activity of cyclopropyl carboxamides that target the mitochondrial protein, cytochrome b” (European Journal of Medicinal Chemistry, 2024).
Read-outs that look alike come from different tables or passages of the source.

Key:
[1] = system: Pf Dd2 parental line; assay: Asexual stage assay, Dd2 parental line (SYBR green by FACS, 72 h); type: cell-based; settings: Plasmodium falciparum, DD2, 72 h, read-out: Pf Dd2 EC50 (SD), 72 h, SYBR green by FACS, 3 experiments
Description: Cyt b Resistant and ScDHODH Asexual Stage Assays. These assays were conducted as previously described. Briefly, asexual parasite strains indicated in Table 12 were incubated with compound in a dose response format for 72 h. Parasitemia was determined using SYBR-green fluorescence measured by flow cytometry (Thermo Fisher Attune). EC50 values were determined as described for the LDH assay.

[2] = system: Dd2-B2; assay: 72 h SYBR Green I / MitoTracker flow cytometry assay, Dd2-B2; type: cell-based; settings: Plasmodium falciparum, DD2, 72 h
Description: MIR assay.Plasmodium falciparum asexual blood stage (ABS) parasites were cultured at 3 % hematocrit in human O^+ RBCs in RPMI-1640 media, supplemented with 25 mM HEPES, 50 mg/L hypoxanthine, 2 mM L-glutamine, 0.21 % sodium bicarbonate, 0.5 % (wt/vol) AlbuMAXII (Invitrogen) and 10 μg/mL gentamycin, in modular incubator chambers (Billups- Rothenberg) at 5 % O2, 5 % CO2 and 90 % N2 at 37 °C. Dd2 parasites were obtained from T. Wellems (NIAID, NIH). Dd2-B2 is a genetically homogenous line that was cloned from Dd2 by limiting dilution in the Fidock lab. Dd2-Polδ is a line edited in the Fidock Lab to have a hypermutable polymerase. […] Parasite survival was assessed by flow cytometry on an iQue flow cytometer (Sartorius) using SYBR Green and MitoTracker Deep Red FM (Life Technologies) as nuclear stain and vital dyes respectively.

[3] = system: mitochondrial ETC; assay: P. falciparum oxygen consumption rate (OCR) assay (Seahorse XFe96); type: cell-based, Plasmodium falciparum; settings: compounds 5 μM
Description: To provide further evidence to support the cyclopropyl carboxamide series targeting cyt b, an oxygen consumption rate (OCR) assay was performed using a Seahorse XFe96 Flux Analyzer. The primary role of the mitochondria ETC is to produce ATP oxidative phosphorylation, and thus the oxygen consumption directly quantifies mitochondrial ETC activity. In this assay, malate, which is a substrate of malate quinone dehydrogenase (MQD), was added to provide a base line of oxygen consumption at approximately 50 pmol/min (Fig. 4). […] Finally, NaN3 was added to inhibit complex IV to bring the OCR back to basal levels.
Fig. 4 P. falciparum oxygen consumption rate (OCR) assay. Data represent the means and SDs of 3 technical replicates. Time points and reagent injections were as follows, 1. First 5 timepoints measured the basal level of malate-dependent OCR; 2. Compounds (5 μM) were injected independently (indicated by arrow), and OCR measured for 8-timepoints; 3. TMPD (a cytochrome c electron donor) was injected, and OCR measured for 5 time points; 4. NaN3 (a complex IV inhibitor) was then added, and OCR measured for 5 time points.
ETC Biosensor Assay. This assay was performed as previously described. Briefly, 3 × 10^8 trophozoite infected RBCs were purified using the SuperMACS II separator (Miltenyi Biotec, Germany). The trophozoite-stage parasites were released from erythrocytes by treating them with 0.05 % (w/v) pre-warmed saponin in phosphate-buffered saline (PBS) at 37 °C for 3 min. The cells were washed with pre-warmed PBS, three times. […] The cells were measured for oxygen consumption rate (OCR) using Seahorse XFe96 flux analyzer (Agilent). The OCR was assessed for five cycles of 20 s mixing, 1 min waiting, 2.5 min measuring to establish baseline OCR before any substrate injections, for eight cycles of 20 s mixing, 1 min waiting followed by 2.5 min measuring after inhibitor injection from port A and for five cycles of 20 s mixing 1 min waiting, 2.5 min measuring after TMPD, and NaN3, injections.

[4] = system: W499-resistant populations; assay: microbe, parasite or virus in culture; type: cell-based, Plasmodium falciparum; settings: for EC50: Plasmodium falciparum
Text: To confirm if W466 (1) and W499 (2) may have the same molecular target, W466 (1) and W499 (2) were each evaluated for cross resistance against their respective resistant populations from the pulsed forward genetic study (Fig. 2).

Row | SMILES | EC50 [1] [nM] | IC50 ([2]; read-out: IC50 Dd2-B2) [nM] | IC90 ([2]; read-out: IC90 Dd2-B2) [nM] | effect on malate-dependent oxygen consumption rate (OCR) [3] | fold shift in EC50 against W499-resistant populations compared to wildtype 3D7 [4] | EC50 ([4]; read-out: W499-resistant population #2 EC50) [nM] | EC50 ([4]; read-out: W499-resistant population #3 EC50) [nM]
1 | CCCN(Cc1ccc(C(=O)NC2CC2)cc1)Cc1ccc(C(F)(F)F)cc1 [WJM280 (108), N-Cyclopropyl-4-((propyl(4-(trifluoromethyl)benzyl)amino)methyl)benzamide] | 10 | – | – | – | – | – | –
2 | O=C(NC1CC1)c1ccc(CN(Cc2ccc(Cl)cc2Cl)C2CC2)cc1 [W499 (2)] | – | 112 | 224 | reduced the OCR to the same level as ATQ | 1.6–1.9 fold | 206 | 177
